Literature values in patent publication US20140079639A1, “METHODS AND COMPOSITIONS FOR IDENTIFYING, PRODUCING AND USING PLANT-DERIVED PRODUCTS FOR MODULATING CELL FUNCTION AND AGING” (LIFESPAN EXTENSION, LLC, priority 2009, published 2014).

What was measured:
[1] = tested on: fibroblast cells; settings: cells treated in culture
[2] = oxidation of lipids due to e.g. UV radiation or free radical damage
[3] = when absorbed into the body

O=C(O)/C=C/c1ccc(O)c(O)c1 [Caffeic Acid, (E)-3-(3,4-dihydroxyphenyl)-2-propenoic acid]
solubility: soluble in water and alcohol

NCCC(=O)N[C@@H](Cc1cnc[nH]1)C(=O)O [Carnosine]
extension of lifespan of fibroblast cells past the Hayflick limit of non-treated cells [1]: up to 10 divisions

COC1=C(OC)C(=O)C(CCCCCCCCCCO)=C(C)C1=O [idebenone, 6-(10-hydroxydecyl)-2,3-dimethoxy-5-methyl-1,4-benzoquin-one]
reduction of lipid hydroperoxides among the tested antioxidants [2]: highest reduction

COC1=C(OC)C(=O)C(C/C=C(\C)CC/C=C(\C)CC/C=C(\C)CC/C=C(\C)CC/C=C(\C)CC/C=C(\C)CC/C=C(\C)CC/C=C(\C)CC/C=C(\C)CCC=C(C)C)=C(C)C1=O [ubiquinone, Ubiquinone]
conversion to the active antioxidant form ubiquinol [3]: 90%
